Experimental data as given in paper PMC2806030, “Inhibition of mammalian S6 kinase by resveratrol suppresses autophagy” (Aging (Albany NY), 2009).

Legend:
Assay in all cases: biochemical
Parameters in all cases: Upstate KinaseProfiler in vitro kinase activity assay, per cent of DMSO control
Settings in all cases: read-out: Activity (% of Control)
[1] = target: NEK3(h) (Homo sapiens, UniProt P51956)
Method in brief: (§1)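 Profiling done with Upstate KinaseProfiler service across 100 kinases, resveratrol tested at 20 μM; activity expressed relative to control.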

[2] = target: NEK7(h) (Homo sapiens, UniProt Q8TDX7)
NEK7(h), sequence (Q8TDX7 whole entry): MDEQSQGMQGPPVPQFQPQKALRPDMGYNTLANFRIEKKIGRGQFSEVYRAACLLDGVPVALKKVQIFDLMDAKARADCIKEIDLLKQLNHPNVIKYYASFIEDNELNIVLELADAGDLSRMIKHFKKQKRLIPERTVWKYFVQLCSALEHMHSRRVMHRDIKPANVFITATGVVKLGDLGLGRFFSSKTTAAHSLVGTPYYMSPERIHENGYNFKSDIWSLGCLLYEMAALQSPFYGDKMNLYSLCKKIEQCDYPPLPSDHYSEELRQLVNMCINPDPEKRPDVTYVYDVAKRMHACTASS
Method in brief: as §1

[3] = target: T1, SAPK2b(h) (Homo sapiens, UniProt Q15759)
T1 construct: gene MAPK11
T1 sequence (Q15759 whole entry): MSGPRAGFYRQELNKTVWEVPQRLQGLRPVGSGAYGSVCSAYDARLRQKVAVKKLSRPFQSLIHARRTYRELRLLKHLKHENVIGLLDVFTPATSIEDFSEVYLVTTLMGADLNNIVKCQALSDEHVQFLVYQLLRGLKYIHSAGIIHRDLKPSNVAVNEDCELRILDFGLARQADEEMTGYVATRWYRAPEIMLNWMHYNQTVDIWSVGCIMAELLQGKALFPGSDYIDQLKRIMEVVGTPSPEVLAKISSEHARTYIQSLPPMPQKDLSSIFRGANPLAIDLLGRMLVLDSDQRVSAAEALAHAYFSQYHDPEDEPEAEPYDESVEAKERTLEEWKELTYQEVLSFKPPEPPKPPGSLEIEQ
Method in brief: as §1

[4] = target: CSK(h) (Homo sapiens, UniProt P41240)
CSK(h), sequence (P41240 whole entry): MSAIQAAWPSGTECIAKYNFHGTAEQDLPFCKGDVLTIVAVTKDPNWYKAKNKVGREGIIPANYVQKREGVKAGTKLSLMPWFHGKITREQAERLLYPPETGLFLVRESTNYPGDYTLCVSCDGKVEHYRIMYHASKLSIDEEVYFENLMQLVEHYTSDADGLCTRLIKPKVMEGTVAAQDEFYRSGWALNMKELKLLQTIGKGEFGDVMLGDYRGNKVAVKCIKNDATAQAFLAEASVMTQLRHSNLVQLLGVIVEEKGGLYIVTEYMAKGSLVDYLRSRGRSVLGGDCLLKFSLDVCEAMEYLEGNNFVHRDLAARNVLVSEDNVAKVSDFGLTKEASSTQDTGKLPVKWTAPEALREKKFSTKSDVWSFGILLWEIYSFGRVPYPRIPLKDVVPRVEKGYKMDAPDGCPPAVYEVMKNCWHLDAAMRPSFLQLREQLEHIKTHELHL
Method in brief: as §1

[5] = target: T2, IKKα(h) (Homo sapiens, UniProt O15111)
T2 construct: gene CHUK
Method in brief: as §1

[6] = target: CDK1/cyclinB(h) (Homo sapiens, UniProt P06493)
Method in brief: as §1

[7] = target: T3, Rsk2(h) (Homo sapiens, UniProt P51812)
T3 construct: gene RPS6KA3
Method in brief: as §1

[8] = target: T4, Pim-1 (Homo sapiens, UniProt P11309)
T4 construct: gene PIM1
T4 sequence (P11309 whole entry): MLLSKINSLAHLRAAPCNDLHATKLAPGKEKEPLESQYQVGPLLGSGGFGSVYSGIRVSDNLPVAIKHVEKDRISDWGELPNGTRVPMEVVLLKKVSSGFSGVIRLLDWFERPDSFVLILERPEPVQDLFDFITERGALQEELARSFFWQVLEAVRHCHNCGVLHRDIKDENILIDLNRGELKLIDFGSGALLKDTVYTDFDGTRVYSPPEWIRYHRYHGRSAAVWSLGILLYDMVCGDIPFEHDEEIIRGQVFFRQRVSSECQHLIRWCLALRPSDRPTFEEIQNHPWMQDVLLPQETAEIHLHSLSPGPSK
Method in brief: as §1

[9] = target: T5, IR(h) (Homo sapiens, UniProt P06213)
T5 construct: gene INSR
Method in brief: as §1

[10] = target: DAPK1(h) (Homo sapiens, UniProt P53355)
DAPK1(h), sequence (P53355 whole entry): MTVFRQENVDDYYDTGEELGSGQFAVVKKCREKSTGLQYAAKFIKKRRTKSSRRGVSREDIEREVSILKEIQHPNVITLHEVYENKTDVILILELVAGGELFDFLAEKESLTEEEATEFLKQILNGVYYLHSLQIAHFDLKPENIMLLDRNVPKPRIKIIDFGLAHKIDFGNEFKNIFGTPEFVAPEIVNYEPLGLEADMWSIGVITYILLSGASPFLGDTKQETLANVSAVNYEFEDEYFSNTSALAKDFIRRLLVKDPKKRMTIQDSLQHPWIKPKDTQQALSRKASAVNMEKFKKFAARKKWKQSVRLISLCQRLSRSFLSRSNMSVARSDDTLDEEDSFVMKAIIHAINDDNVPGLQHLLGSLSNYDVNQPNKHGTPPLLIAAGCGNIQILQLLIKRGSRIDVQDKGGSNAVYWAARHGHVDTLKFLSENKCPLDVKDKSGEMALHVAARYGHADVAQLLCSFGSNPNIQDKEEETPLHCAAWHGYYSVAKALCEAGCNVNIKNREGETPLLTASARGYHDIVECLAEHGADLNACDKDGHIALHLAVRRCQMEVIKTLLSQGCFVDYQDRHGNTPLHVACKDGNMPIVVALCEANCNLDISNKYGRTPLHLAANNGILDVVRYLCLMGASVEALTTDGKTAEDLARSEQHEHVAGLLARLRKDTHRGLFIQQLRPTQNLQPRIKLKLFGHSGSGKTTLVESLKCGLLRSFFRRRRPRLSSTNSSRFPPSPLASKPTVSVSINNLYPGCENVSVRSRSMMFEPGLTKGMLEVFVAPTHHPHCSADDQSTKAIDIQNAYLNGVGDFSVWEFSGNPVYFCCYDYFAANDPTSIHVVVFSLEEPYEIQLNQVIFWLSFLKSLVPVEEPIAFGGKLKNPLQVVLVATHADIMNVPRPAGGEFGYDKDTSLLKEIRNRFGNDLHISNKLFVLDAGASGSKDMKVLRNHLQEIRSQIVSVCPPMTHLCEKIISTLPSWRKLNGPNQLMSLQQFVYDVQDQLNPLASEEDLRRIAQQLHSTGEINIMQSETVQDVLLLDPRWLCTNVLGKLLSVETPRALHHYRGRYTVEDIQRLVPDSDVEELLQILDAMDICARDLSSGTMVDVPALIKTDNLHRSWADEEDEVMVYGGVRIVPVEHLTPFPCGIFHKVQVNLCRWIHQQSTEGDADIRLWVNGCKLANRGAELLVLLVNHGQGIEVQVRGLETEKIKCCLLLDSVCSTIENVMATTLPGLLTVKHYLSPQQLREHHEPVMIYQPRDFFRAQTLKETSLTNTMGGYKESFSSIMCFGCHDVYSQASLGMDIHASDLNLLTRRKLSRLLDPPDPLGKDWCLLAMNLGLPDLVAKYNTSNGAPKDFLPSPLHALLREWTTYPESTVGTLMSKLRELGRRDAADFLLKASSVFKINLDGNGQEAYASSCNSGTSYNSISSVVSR
Method in brief: as §1

[11] = target: Plk3(h) (Homo sapiens, UniProt Q9H4B4)
Method in brief: as §1

[12] = target: T6, Pim-2 (Homo sapiens, UniProt Q9P1W9)
T6 construct: gene PIM2
T6 sequence (Q9P1W9 whole entry): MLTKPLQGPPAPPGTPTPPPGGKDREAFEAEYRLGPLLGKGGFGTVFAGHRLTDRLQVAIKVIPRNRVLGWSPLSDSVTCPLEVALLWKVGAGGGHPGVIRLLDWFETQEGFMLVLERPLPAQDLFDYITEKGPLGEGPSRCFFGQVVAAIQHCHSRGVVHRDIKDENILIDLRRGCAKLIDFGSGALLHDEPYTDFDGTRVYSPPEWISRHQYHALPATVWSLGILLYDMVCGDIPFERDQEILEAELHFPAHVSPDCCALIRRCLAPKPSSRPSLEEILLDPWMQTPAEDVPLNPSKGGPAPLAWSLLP
Method in brief: as §1

[13] = target: T7, TrkB(h) (Homo sapiens, UniProt Q16620)
T7 construct: gene NTRK2
Method in brief: as §1

[14] = target: T8, Abl(T315I)(h) (Homo sapiens, UniProt P00519, T315I)
T8 construct: gene ABL1
Method in brief: as §1

[15] = target: T9, Tie2(h) (Homo sapiens, UniProt Q02763)
T9 construct: gene TEK
T9 sequence (Q02763 whole entry): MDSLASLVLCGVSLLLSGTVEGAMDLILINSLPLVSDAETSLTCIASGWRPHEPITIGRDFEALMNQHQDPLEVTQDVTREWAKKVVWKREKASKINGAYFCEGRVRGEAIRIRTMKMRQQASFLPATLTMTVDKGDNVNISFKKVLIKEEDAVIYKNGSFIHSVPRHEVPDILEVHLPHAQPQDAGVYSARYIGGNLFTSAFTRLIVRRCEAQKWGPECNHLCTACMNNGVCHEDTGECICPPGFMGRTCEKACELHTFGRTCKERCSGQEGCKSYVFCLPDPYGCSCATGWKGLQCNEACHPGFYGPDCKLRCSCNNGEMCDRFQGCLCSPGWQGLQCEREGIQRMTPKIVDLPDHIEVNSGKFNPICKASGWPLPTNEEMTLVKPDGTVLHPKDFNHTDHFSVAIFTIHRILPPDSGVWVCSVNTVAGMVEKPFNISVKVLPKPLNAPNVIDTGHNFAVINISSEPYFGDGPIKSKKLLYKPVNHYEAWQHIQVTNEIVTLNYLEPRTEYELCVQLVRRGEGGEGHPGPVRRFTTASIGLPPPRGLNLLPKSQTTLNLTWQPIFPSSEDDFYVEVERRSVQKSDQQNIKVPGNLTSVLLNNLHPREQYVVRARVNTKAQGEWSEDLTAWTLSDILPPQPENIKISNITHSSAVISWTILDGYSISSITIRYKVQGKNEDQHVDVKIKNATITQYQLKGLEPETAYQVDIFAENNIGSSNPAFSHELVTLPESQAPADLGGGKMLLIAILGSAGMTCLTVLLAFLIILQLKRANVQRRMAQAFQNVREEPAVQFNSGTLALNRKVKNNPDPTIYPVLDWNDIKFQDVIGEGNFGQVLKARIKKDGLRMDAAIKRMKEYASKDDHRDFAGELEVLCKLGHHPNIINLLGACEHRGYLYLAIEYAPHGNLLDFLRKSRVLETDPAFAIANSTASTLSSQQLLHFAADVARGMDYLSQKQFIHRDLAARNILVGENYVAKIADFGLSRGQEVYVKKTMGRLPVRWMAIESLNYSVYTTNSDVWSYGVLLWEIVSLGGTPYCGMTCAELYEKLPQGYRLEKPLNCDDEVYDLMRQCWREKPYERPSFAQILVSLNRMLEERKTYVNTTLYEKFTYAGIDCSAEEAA
Method in brief: as §1

[16] = target: T10, IRR(h) (Homo sapiens, UniProt P14616)
T10 construct: gene INSRR
Method in brief: as §1

[17] = target: Jak2 (Homo sapiens, UniProt O60674)
Method in brief: as §1

[18] = target: IRAK1(h) (Homo sapiens, UniProt P51617)
IRAK1(h), sequence (P51617 whole entry): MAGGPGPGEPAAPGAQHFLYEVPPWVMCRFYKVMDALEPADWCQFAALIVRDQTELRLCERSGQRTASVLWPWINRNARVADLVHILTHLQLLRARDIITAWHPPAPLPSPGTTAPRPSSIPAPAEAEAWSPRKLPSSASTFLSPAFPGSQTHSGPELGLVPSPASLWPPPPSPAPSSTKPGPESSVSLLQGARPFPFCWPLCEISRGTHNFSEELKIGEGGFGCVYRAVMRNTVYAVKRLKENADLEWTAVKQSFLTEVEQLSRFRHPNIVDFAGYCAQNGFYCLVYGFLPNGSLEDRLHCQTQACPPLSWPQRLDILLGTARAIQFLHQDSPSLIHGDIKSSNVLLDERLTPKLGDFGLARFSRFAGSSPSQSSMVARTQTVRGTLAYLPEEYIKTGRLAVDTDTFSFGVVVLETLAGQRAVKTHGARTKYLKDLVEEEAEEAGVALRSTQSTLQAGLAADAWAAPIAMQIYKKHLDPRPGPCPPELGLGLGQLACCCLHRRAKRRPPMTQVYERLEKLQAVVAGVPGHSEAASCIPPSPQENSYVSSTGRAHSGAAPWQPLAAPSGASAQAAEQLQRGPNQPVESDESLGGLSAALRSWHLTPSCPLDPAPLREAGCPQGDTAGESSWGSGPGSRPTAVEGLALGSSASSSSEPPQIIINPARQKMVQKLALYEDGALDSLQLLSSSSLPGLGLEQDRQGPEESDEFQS
Method in brief: as §1

Oc1ccc(/C=C/c2cc(O)cc(O)c2)cc1 [Res, resveratrol]
remaining activity at 20 µM [1]: 96 ± 8%
remaining activity at 20 µM [2]: 116 ± 2%
remaining activity at 20 µM [3]: 100 ± 1%
remaining activity at 20 µM [4]: 94 ± 5%
remaining activity at 20 µM [5]: 40 ± 1%
remaining activity at 20 µM [6]: 67 ± 3%
remaining activity at 20 µM [7]: 32%
remaining activity at 20 µM [8]: 6 ± 2%
remaining activity at 20 µM [9]: 71 ± 5%
remaining activity at 20 µM [10]: 71 ± 3%
remaining activity at 20 µM [11]: 95 ± 9%
remaining activity at 20 µM [12]: 14 ± 2%
remaining activity at 20 µM [13]: 98 ± 1%
remaining activity at 20 µM [14]: 100 ± 2%
remaining activity at 20 µM [15]: 94 ± 8%
remaining activity at 20 µM [16]: 40%
remaining activity at 20 µM [17]: 27 ± 5%
remaining activity at 20 µM [18]: 97%
